Test results from patent US9833497B2, “Human originated EGF domain proteins and use of the same” (CHENGDU SOURCEBIO LIMITED-LIABILITY COMPANY, priority 2013, dated 2017).

Experiments:
Assay type in all cases: cell-based
E. coli DH5α = experiment: Antibacterial activity: MIC and growth curve against E. coli DH5α in 96-well plate; conditions: minimal inhibitory concentration against E. coli DH5α; 96-well plate, 5×10^5 CFU/mL, 37° C., judged after 8 h
How it was run: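 Log-phase DH5α (OD600 about 0.5, 37° C, 185 rpm in LB) was pelleted, resuspended in fresh LB and seeded at 5×10^5 CFU/mL with recombinant protein at 50, 25 and 12.5 μg/mL (two-fold series), in triplicate. Plates were shaken at 175 rpm, 37° C, and OD600 was read every 30 min. MIC was the lowest concentration with no growth.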

Proteus vulgaris = experiment: MIC against Gram-negative bacteria: Proteus vulgaris
How it was run: (§1)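 First, colonies from LB agar were grown in LB at 37° C, 185 rpm, to McFarland turbidity 0.5, then centrifuged and resuspended in fresh LB. Next, wells received 5×10^5 CFU/mL bacteria plus two-fold serially diluted EGF domain protein (triplicate). Finally, plates were shaken at 37° C and the no-growth concentration taken as MIC.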

Klebsiella pneumonia = experiment: MIC against Gram-negative bacteria: Klebsiella pneumonia
How it was run: as §1

Serratia marcescens = experiment: MIC against Gram-negative bacteria: Serratia marcescens
How it was run: as §1

Aeromonas hydrophila = experiment: MIC against Gram-negative bacteria: Aeromonas hydrophila
How it was run: as §1

Proteus mirabilis = experiment: MIC against Gram-negative bacteria: Proteus mirabilis
How it was run: as §1

E. coli BL21 = experiment: MIC against Gram-negative bacteria: E. coli BL21
How it was run: as §1

Pseudomonas aeruginosa = experiment: MIC against Gram-negative bacteria: Pseudomonas aeruginosa
How it was run: as §1

Enterobacter cloacae = experiment: MIC against Gram-negative bacteria: Enterobacter cloacae
How it was run: as §1

Moraxella catarrhalis = experiment: MIC against Gram-negative bacteria: Moraxella catarrhalis
How it was run: as §1

Citrobacter diversus = experiment: MIC against Gram-negative bacteria: Citrobacter diversus
How it was run: as §1

[1] = P. vulgaris, 10 h cultivation at 37° C., 5×10^5 CFU/mL
[2] = K. pneumonia, 10 h cultivation at 37° C., 5×10^5 CFU/mL
[3] = S. marcescens, 10 h cultivation at 37° C., 5×10^5 CFU/mL
[4] = A. hydrophila, 10 h cultivation at 37° C., 5×10^5 CFU/mL
[5] = P. mirabilis, 10 h cultivation at 37° C., 5×10^5 CFU/mL
[6] = E. coli BL21, 10 h cultivation at 37° C., 5×10^5 CFU/mL
[7] = P. aeruginosa, 10 h cultivation at 37° C., 5×10^5 CFU/mL
[8] = E. cloacae, 10 h cultivation at 37° C., 5×10^5 CFU/mL
[9] = M. catarrhalis, 10 h cultivation at 37° C., 5×10^5 CFU/mL
[10] = C. diversus, 10 h cultivation at 37° C., 5×10^5 CFU/mL
[11] = 96-well plate, 5×10^5 CFU/mL, 37° C., 10 h

For “PRT808 (YGPNCSSICSCNNGGTCSPVDGSCTCKEGWQGLDCT; listed as Homo sapiens)”, the MIC (E. coli DH5α) was 25 µg/mL, the “MIC (μg/mL) P. vulgaris” value (Proteus vulgaris; [1]) was 12.5 µg/mL and the “MIC (μg/mL) K. pneumonia” value (Klebsiella pneumonia; [2]) was 50 µg/mL. The “MIC (μg/mL) S. marcescens” value (Serratia marcescens; [3]) was 50 µg/mL, the “MIC (μg/mL) A. hydrophila” value (Aeromonas hydrophila; [4]) was 12.5 µg/mL and the “MIC (μg/mL) P. mirabilis” value (Proteus mirabilis; [5]) was 25 µg/mL. The “MIC (μg/mL) E. coli BL21” value (E. coli BL21; [6]) was 50 µg/mL, the “MIC (μg/mL) P. aeruginosa” value (Pseudomonas aeruginosa; [7]) was 12.5 µg/mL and the “MIC (μg/mL) E. cloacae” value (Enterobacter cloacae; [8]) was 25 µg/mL. The “MIC (μg/mL) M. catarrhalis” value (Moraxella catarrhalis; [9]) was 50 µg/mL and the “MIC (μg/mL) C. diversus” value (Citrobacter diversus; [10]) was 25 µg/mL.

In the case of “PRT947 (NIDDCARGPHCLNGGQCMDRIGGYSCRCLPGFAGERCE; listed as Homo sapiens)”, the MIC (E. coli DH5α) is reported as 12.5 µg/mL, the MIC (Proteus vulgaris; P. vulgaris, 10 h cultivation at 37° C.) is reported as 50 µg/mL and the MIC (Klebsiella pneumonia; K. pneumonia, 10 h cultivation at 37° C.) is reported as 50 µg/mL. It also gave an MIC (Serratia marcescens; S. marcescens, 10 h cultivation at 37° C.) of 12.5 µg/mL, an MIC (Aeromonas hydrophila; A. hydrophila, 10 h cultivation at 37° C.) of 50 µg/mL and an MIC (Proteus mirabilis; P. mirabilis, 10 h cultivation at 37° C.) of 25 µg/mL. For the same substance, the MIC (E. coli BL21; E. coli BL21, 10 h cultivation at 37° C.) was 50 µg/mL, the MIC (Pseudomonas aeruginosa; P. aeruginosa, 10 h cultivation at 37° C.) was 12.5 µg/mL and the MIC (Enterobacter cloacae; E. cloacae, 10 h cultivation at 37° C.) was 12.5 µg/mL. It also gave an MIC (Moraxella catarrhalis; M. catarrhalis, 10 h cultivation at 37° C.) of 12.5 µg/mL and an MIC (Citrobacter diversus; C. diversus, 10 h cultivation at 37° C.) of 25 µg/mL.

With “PRT596 (CDCDPRTSQSSHCDQLTGQCPCKLGYGGKRCSECQENYYGDPPGRCIP; listed as Homo sapiens)” the MIC (E. coli DH5α) was 12.5 µg/mL, the “MIC P. vulgaris” value (Proteus vulgaris; [11]) was 25 µg/mL and the “MIC K. pneumonia” value (Klebsiella pneumonia; [11]) was 25 µg/mL. The “MIC S. marcescens” value (Serratia marcescens; [11]) was 50 µg/mL, the “MIC A. hydrophila” value (Aeromonas hydrophila; [11]) was 25 µg/mL and the “MIC P. mirabilis” value (Proteus mirabilis; [11]) was 12.5 µg/mL. The “MIC E. coli BL21” value (E. coli BL21; [11]) was 25 µg/mL, the “MIC P. aeruginosa” value (Pseudomonas aeruginosa; [11]) was 50 µg/mL and the “MIC E. cloacae” value (Enterobacter cloacae; [11]) was 12.5 µg/mL. For the same substance, the “MIC M. catarrhalis” value (Moraxella catarrhalis; [11]) was 25 µg/mL and the “MIC C. diversus” value (Citrobacter diversus; [11]) was 50 µg/mL.

“PRT17 (AGHPCTRASGHPCLNGASCVPREAAYVCLCPGGFSGPHCE; listed as Homo sapiens)” was tested, and the MIC (E. coli DH5α) was 12.5 µg/mL, the “MIC (μg/mL) P. vulgaris” value (Proteus vulgaris; Proteus vulgaris, 96-well plate, 5×10^5 CFU/mL, 37° C., 10 h) was 50 µg/mL and the “MIC (μg/mL) K. pneumonia” value (Klebsiella pneumonia; Klebsiella pneumonia, 96-well plate, 5×10^5 CFU/mL, 37° C., 10 h) was 25 µg/mL. For the same substance, the “MIC (μg/mL) S. marcescens” value (Serratia marcescens; Serratia marcescens, 96-well plate, 5×10^5 CFU/mL, 37° C., 10 h) was 25 µg/mL, the “MIC (μg/mL) A. hydrophila” value (Aeromonas hydrophila; Aeromonas hydrophila, 96-well plate, 5×10^5 CFU/mL, 37° C., 10 h) was 12.5 µg/mL and the “MIC (μg/mL) P. mirabilis” value (Proteus mirabilis; Proteus mirabilis, 96-well plate, 5×10^5 CFU/mL, 37° C., 10 h) was 12.5 µg/mL. The “MIC (μg/mL) E. coli BL21” value (E. coli BL21; E. coli BL21, 96-well plate, 5×10^5 CFU/mL, 37° C., 10 h) was 12.5 µg/mL, the “MIC (μg/mL) P. aeruginosa” value (Pseudomonas aeruginosa; Pseudomonas aeruginosa, 96-well plate, 5×10^5 CFU/mL, 37° C., 10 h) was 12.5 µg/mL and the “MIC (μg/mL) E. cloacae” value (Enterobacter cloacae; Enterobacter cloacae, 96-well plate, 5×10^5 CFU/mL, 37° C., 10 h) was 50 µg/mL. The “MIC (μg/mL) M. catarrhalis” value (Moraxella catarrhalis; Moraxella catarrhalis, 96-well plate, 5×10^5 CFU/mL, 37° C., 10 h) was 25 µg/mL and the “MIC (μg/mL) C. diversus” value (Citrobacter diversus; Citrobacter diversus, 96-well plate, 5×10^5 CFU/mL, 37° C., 10 h) was 50 µg/mL.

With “PRT154 (DVDECSLAEKTCVRKNENCYNTPGSYVCVCPDGFEETEDACV; listed as Homo sapiens)” the MIC (E. coli DH5α) was 12.5 µg/mL, the “MIC (μg/mL) P. vulgaris” value (Proteus vulgaris; [1]) was 12.5 µg/mL and the “MIC (μg/mL) K. pneumonia” value (Klebsiella pneumonia; [2]) was 25 µg/mL. The “MIC (μg/mL) S. marcescens” value (Serratia marcescens; [3]) was 25 µg/mL, the “MIC (μg/mL) A. hydrophila” value (Aeromonas hydrophila; [4]) was 12.5 µg/mL and the “MIC (μg/mL) P. mirabilis” value (Proteus mirabilis; [5]) was 25 µg/mL. The “MIC (μg/mL) E. coli BL21” value (E. coli BL21; [6]) was 50 µg/mL, the “MIC (μg/mL) P. aeruginosa” value (Pseudomonas aeruginosa; [7]) was 12.5 µg/mL and the “MIC (μg/mL) E. cloacae” value (Enterobacter cloacae; [8]) was 50 µg/mL. For the same substance, the “MIC (μg/mL) M. catarrhalis” value (Moraxella catarrhalis; [9]) was 50 µg/mL and the “MIC (μg/mL) C. diversus” value (Citrobacter diversus; [10]) was 25 µg/mL.
